Publication PMC9176681, “Evaluation of a flavonoid library for inhibition of interaction of HIV-1 integrase with human LEDGF/p75 towards a structure–activity relationship” (Annals of Medicine, 2022)
“And” between values parts separate entries of the source, which are not always exact repeats. Equal values may be shown once. Read-outs that look alike come from different tables or passages of the source.

Key:
IN = target: T1, IN (Human immunodeficiency virus type 1 group M subtype B, UniProt P12497, C1427S/F1332K); assay: Biolayer interferometry (BLI) binding assay; set-up: species or system HIV-1; settings: 30 °C, PBS with 0.01% Tween-20
T1 construct: His6 (C); made in house; host or cells: E. coli

IN-LEDGF/p75 interaction [1] = target: T2, IN-LEDGF/p75 interaction (Human immunodeficiency virus type 1 group M subtype B, UniProt P12497, C1427S/F1332K); assay: biochemical; assay type: binding, HIV-1; settings: for inhibitory activity against IN-LEDGF/p75 interaction (in words): HTRF, 50 μM final concentration
T2 construct: His6 (C); made in house; host or cells: E. coli
Procedure: The inhibitory activities against the IBD-IN interaction were tested using HTRF assays according to a previous study. […] “Protein MIX” was prepared by mixing His6-HIV-1 IN (final concentration of 50 nM) and GST-IBD (final concentration of 25) in the assay buffer (25 mM Tris-HCl pH 7.5, 150 mM NaCl, 1 mg/ml BSA, 0.1% NP40, 2 mM MgCl2). […] To the 8 μl “protein MIX”, 2 μl of DMSO or compound (50 µM) dissolved in DMSO was added and mixed thoroughly. The concentrations of DMSO in the assay should be no more than 4%. The plate was incubated for 30 min at 25 °C. Then 10 μl premixed antibodies were added and mixed. The assay plate was incubated in the dark for 1 h at 25 °C. DMSO instead of the compound was used as a negative control. BI224436 was used as a positive compound for inhibition of IN-LEDGF/p75 interaction. […] Data were analysed and visualised in GraphPad Prism 5.0.

IN-LEDGF/p75 interaction [2] = target: T2, IN-LEDGF/p75 interaction; set-up: method as in PMID 24663024; settings: previous experiment result; read-out: IC50, inhibition of IN-LEDGF/p75 interaction, previous experiment result; cited from earlier work

SMILES: O=C1C[C@@H](c2ccc(O)cc2)Oc2cc(O)cc(O)c21 [naringenin]
- Kd (IN): 1.4 µM and 1.9 µM

SMILES: Oc1cc(O)c2c(c1)O[C@H](c1ccc(O)c(O)c1)[C@H](O)C2 [epicatechin]
- Kd (IN): 1.7 µM

SMILES: COc1cc(O)c2c(=O)c(OC)c(-c3ccc(O)c(OC)c3)oc2c1 [compound 14]
- inhibitory activity against IN-LEDGF/p75 interaction (in words) (IN-LEDGF/p75 interaction [1]): reduced

SMILES: O=c1cc(-c2ccc(O)c(O)c2)oc2cc(O)cc(O)c12 [compound 30, Luteolin]
- Kd (IN): 1.3 µM
- inhibitory activity against IN-LEDGF/p75 interaction (in words) (IN-LEDGF/p75 interaction [1]): most potent

SMILES: O=C1c2ccc(O)cc2OC(c2cc(O)c(O)c(O)c2)C1O (stereo not shown) [compound 43]
- inhibitory activity against IN-LEDGF/p75 interaction (in words) (IN-LEDGF/p75 interaction [1]): efficiently blocked

SMILES: COc1cc(-c2oc3cc(O)c(OC)c(O)c3c(=O)c2OC)ccc1O [compound 17]
- inhibitory activity against IN-LEDGF/p75 interaction (in words) (IN-LEDGF/p75 interaction [1]): reduced

SMILES: COc1cc2oc(-c3ccc(O)c(O)c3)c(OC)c(=O)c2c(O)c1OC [compound 16]
- inhibitory activity against IN-LEDGF/p75 interaction (in words) (IN-LEDGF/p75 interaction [1]): effectively inhibited

SMILES: COc1cc(O)c(CC=C(C)C)c(O)c1C(=O)/C=C/c1ccc(O)cc1 [compound 95]
- inhibitory activity against IN-LEDGF/p75 interaction (in words) (IN-LEDGF/p75 interaction [1]): drop in protein-protein interaction disruption

SMILES: COc1cc(O)c(C(=O)/C=C/c2ccccc2)c(O)c1OC [compound 99]
- inhibitory activity against IN-LEDGF/p75 interaction (in words) (IN-LEDGF/p75 interaction [1]): drop in protein-protein interaction disruption

SMILES: COc1c(O)cc2c(c1O)C(=O)CC(c1ccc(O)cc1)O2 (stereo not shown) [compound 52]
- inhibitory activity against IN-LEDGF/p75 interaction (in words) (IN-LEDGF/p75 interaction [1]): loss of activity

SMILES: CC(C)=CCc1c(O)ccc2c1O[C@@H](c1ccc(O)cc1)CC2=O [compound 64]
- inhibitory activity against IN-LEDGF/p75 interaction (in words) (IN-LEDGF/p75 interaction [1]): loss of activity

SMILES: O=c1c(O)c(-c2ccc(O)c(O)c2)oc2cc(O)cc(O)c12 [compound 10]
- inhibitory activity against IN-LEDGF/p75 interaction (in words) (IN-LEDGF/p75 interaction [1]): effectively inhibited

SMILES: Oc1cc(O)c2c(c1)O[C@H](c1ccc(O)c(O)c1)[C@@H](O)C2 [compound 70]
- inhibitory activity against IN-LEDGF/p75 interaction (in words) (IN-LEDGF/p75 interaction [1]): effectively blocked

SMILES: O=C1c2ccc(O)cc2OC(c2cc(O)c(O)c(O)c2)C1O (stereo not shown) [dihydrorobinetin]
- Kd (IN): 1.4 µM

SMILES: COc1ccc(-c2oc3cc(O)cc(O)c3c(=O)c2OC)cc1O [compound 15]
- inhibitory activity against IN-LEDGF/p75 interaction (in words) (IN-LEDGF/p75 interaction [1]): reduced

SMILES: COc1cc(C2CC(=O)c3c(cc(O)c(OC)c3O)O2)cc(O)c1OC (stereo not shown) [compound 50]
- inhibitory activity against IN-LEDGF/p75 interaction (in words) (IN-LEDGF/p75 interaction [1]): loss of activity

SMILES: O=c1c(O)c(-c2cc(O)c(O)c(O)c2)oc2cc(O)cc(O)c12 [myricetin]
- Kd (IN): 1 µM

SMILES: COc1cc(O)c2c(c1)OC(c1ccc(O)cc1)CC2=O (stereo not shown) [compound 49]
- inhibitory activity against IN-LEDGF/p75 interaction (in words) (IN-LEDGF/p75 interaction [1]): loss of activity

SMILES: COc1cc(-c2oc3cc(O)cc(O)c3c(=O)c2O)ccc1O [compound 3]
- inhibitory activity against IN-LEDGF/p75 interaction (in words) (IN-LEDGF/p75 interaction [1]): reduced

SMILES: COc1cc(-c2oc3cc(OC)c(OC)c(O)c3c(=O)c2OC)ccc1O [compound 19]
- inhibitory activity against IN-LEDGF/p75 interaction (in words) (IN-LEDGF/p75 interaction [1]): reduced

SMILES: CC(C)=CCc1cc(-c2oc3cc(O)cc(O)c3c(=O)c2O)ccc1O [compound 2]
- inhibitory activity against IN-LEDGF/p75 interaction (in words) (IN-LEDGF/p75 interaction [1]): reduced

SMILES: O=C1c2c(O)cc(O)cc2OC(c2cc(O)c(O)c(O)c2)[C@H]1O (stereo partly shown) [compound 47]
- inhibitory activity against IN-LEDGF/p75 interaction (in words) (IN-LEDGF/p75 interaction [1]): efficiently blocked

SMILES: COc1ccc(-c2oc3cc(O)cc(O)c3c(=O)c2O)cc1O [compound 12]
- inhibitory activity against IN-LEDGF/p75 interaction (in words) (IN-LEDGF/p75 interaction [1]): reduced

SMILES: COc1ccccc1/C=C/C(=O)c1c(OC)cc(O)c(OC)c1O [compound 93]
- inhibitory activity against IN-LEDGF/p75 interaction (in words) (IN-LEDGF/p75 interaction [1]): drop in protein-protein interaction disruption

SMILES: C=C(C)C(O)Cc1c(O)cc(OC)c(C(=O)/C=C/c2ccc(O)cc2)c1O (stereo not shown) [compound 96]
- inhibitory activity against IN-LEDGF/p75 interaction (in words) (IN-LEDGF/p75 interaction [1]): drop in protein-protein interaction disruption

SMILES: COc1cc(O)cc(O)c1C(=O)/C=C/c1ccc(O)cc1 [helichrysetin]
- Kd (IN): 2.7 µM

SMILES: Oc1cc(O)c2c(c1)O[C@H](c1cc(O)c(O)c(O)c1)[C@H](O)C2 [compound 68]
- inhibitory activity against IN-LEDGF/p75 interaction (in words) (IN-LEDGF/p75 interaction [1]): effectively blocked

SMILES: Cc1nc2ccccc2c(-c2ccc3c4c(ccnc24)CCO3)c1[C@H](OC(C)(C)C)C(=O)O [BI224436, reference compound]
- IC50 (IN-LEDGF/p75 interaction [2]): 0.011 µM
- IC50 (IN-LEDGF/p75 interaction [1]): 0.0188 µM

SMILES: O=c1c(-c2ccc(O)cc2)coc2cc(O)cc(O)c12 [genistein]
- Kd (IN): 3.6 µM and 2.7 µM
- inhibitory activity against IN-LEDGF/p75 interaction (in words) (IN-LEDGF/p75 interaction [1]): worst inhibitory activity

SMILES: COc1ccc(-c2oc3cc(O)cc(O)c3c(=O)c2O)cc1 [compound 4]
- inhibitory activity against IN-LEDGF/p75 interaction (in words) (IN-LEDGF/p75 interaction [1]): reduced

SMILES: Oc1cc(O)c2c(c1)O[C@H](c1ccc(O)c(O)c1)[C@H](O)C2 [compound 71]
- inhibitory activity against IN-LEDGF/p75 interaction (in words) (IN-LEDGF/p75 interaction [1]): effectively blocked

SMILES: COc1cc(O)c(OC)c(O)c1C(=O)/C=C/c1ccccc1 [compound 89]
- inhibitory activity against IN-LEDGF/p75 interaction (in words) (IN-LEDGF/p75 interaction [1]): drop in protein-protein interaction disruption

SMILES: CC(C)=CCc1cc(-c2oc3cc(O)c(CC=C(C)C)c(O)c3c(=O)c2O)ccc1O [compound 1]
- inhibitory activity against IN-LEDGF/p75 interaction (in words) (IN-LEDGF/p75 interaction [1]): reduced

SMILES: COc1c(O)cc(O)c2c1O[C@@H](c1ccccc1O)CC2=O [compound 60]
- inhibitory activity against IN-LEDGF/p75 interaction (in words) (IN-LEDGF/p75 interaction [1]): loss of activity
